Measured values: US7728040B1, “Polyamine conjugates as selective NMDA inhibitors and anti-cancer drugs” (University of Central Florids Research Foundation, Inc., priority 2002, dated 2010)
Counter-ions that a name gives are not always drawn. Like-named read-outs stand apart in the source and are kept apart here.

Key:
[1] = biological target: NR1/NR2A NMDA receptor (Homo sapiens, UniProt Q05586+Q12879); test: Inhibition of NMDA receptor NR1/NR2A function; assay type: cell-based
[2] = tested on: L1210 cells + DFMO; test: Cytotoxicity in L1210 cells pretreated with DFMO; assay type: cell-based, mouse; conditions: for IC50: Mus musculus; for L1210/(L1210 + DFMO) IC50 ratio: fold more toxic in the presence of DFMO
[3] = tested on: CHO-MG cells; test: Cytotoxicity in CHO-MG cells (polyamine-transport deficient); assay type: cell-based, Chinese hamster; conditions: Cricetulus griseus, read-out: CHO-MG IC50
[4] = tested on: L1210 cells; test: Cytotoxicity in L1210 cells; assay type: cell-based; conditions: Mus musculus
[5] = tested on: polyamine transporter; test: Ki, affinity for the polyamine transporter in L1210 cells; assay type: binding, mouse
Experimental: Biological Evaluation. Three cell lines were chosen for bioassay. L1210 (mouse leukemia) cells were selected for comparison with the published IC50 and Ki values determined for a variety of polyamine substrates. In this regard both Ki and IC50 values were measured in this line for comparison purposes. Chinese hamster ovary (CHO) cells were chosen along with a mutant cell line (CHO-MG) in order to comment on polyamine transporter affinity and cell selectivity. The CHO-MG cell line is polyamine-transport deficient and was isolated after chronic selection for growth resistance to methylglyoxalbis (guanylhydrazone). For the purposes of this study, the CHO-MG cell line represents cells with limited polyamine transport activity. In contrast, the parent CHO cell line illustrates cell types with active polyamine transport. Comparison of efficacy in these two lines provided an important screen to detect conjugate delivery via the polyamine transporter, PAT. For example, a conjugate with high utilization of the transporter would be very toxic to CHO cells, but less so to CHO-MG cells. Therefore, IC50 determination in these two CHO lines provided a relative ranking of delivery via the PAT.

[6] = tested on: CHO cells; test: Cytotoxicity in CHO cells (active polyamine transporter); assay type: cell-based, Chinese hamster; conditions: for IC50: Cricetulus griseus, CHO, read-out: CHO IC50; for CHO-MG/CHO IC50 ratio: selectivity for cells with active polyamine transporter
[7] = Metabolic de-alkylation to homospermidine in treated cells; assay type: in vitro ADME; conditions: cells treated with compound
Description: N-Alkylpolyamines can be broken down into their de-alkylated components by cellular metabolic pathways. For example, a N-alkyl-4,4-triamine ([…]2, where R is alkyl) can be converted into homospermidine, H2N(CH2)4NH(CH2)4NH2.

[8] = L1210 cells pretreated with DFMO, read-out: L1210 + DFMO IC50
[9] = polyamine-transport deficient line
[10] = L1210 cells, no DFMO, read-out: L1210 IC50

NR1/NR2A NMDA receptor, sequence (Q12879 23-1464, other chains not shown): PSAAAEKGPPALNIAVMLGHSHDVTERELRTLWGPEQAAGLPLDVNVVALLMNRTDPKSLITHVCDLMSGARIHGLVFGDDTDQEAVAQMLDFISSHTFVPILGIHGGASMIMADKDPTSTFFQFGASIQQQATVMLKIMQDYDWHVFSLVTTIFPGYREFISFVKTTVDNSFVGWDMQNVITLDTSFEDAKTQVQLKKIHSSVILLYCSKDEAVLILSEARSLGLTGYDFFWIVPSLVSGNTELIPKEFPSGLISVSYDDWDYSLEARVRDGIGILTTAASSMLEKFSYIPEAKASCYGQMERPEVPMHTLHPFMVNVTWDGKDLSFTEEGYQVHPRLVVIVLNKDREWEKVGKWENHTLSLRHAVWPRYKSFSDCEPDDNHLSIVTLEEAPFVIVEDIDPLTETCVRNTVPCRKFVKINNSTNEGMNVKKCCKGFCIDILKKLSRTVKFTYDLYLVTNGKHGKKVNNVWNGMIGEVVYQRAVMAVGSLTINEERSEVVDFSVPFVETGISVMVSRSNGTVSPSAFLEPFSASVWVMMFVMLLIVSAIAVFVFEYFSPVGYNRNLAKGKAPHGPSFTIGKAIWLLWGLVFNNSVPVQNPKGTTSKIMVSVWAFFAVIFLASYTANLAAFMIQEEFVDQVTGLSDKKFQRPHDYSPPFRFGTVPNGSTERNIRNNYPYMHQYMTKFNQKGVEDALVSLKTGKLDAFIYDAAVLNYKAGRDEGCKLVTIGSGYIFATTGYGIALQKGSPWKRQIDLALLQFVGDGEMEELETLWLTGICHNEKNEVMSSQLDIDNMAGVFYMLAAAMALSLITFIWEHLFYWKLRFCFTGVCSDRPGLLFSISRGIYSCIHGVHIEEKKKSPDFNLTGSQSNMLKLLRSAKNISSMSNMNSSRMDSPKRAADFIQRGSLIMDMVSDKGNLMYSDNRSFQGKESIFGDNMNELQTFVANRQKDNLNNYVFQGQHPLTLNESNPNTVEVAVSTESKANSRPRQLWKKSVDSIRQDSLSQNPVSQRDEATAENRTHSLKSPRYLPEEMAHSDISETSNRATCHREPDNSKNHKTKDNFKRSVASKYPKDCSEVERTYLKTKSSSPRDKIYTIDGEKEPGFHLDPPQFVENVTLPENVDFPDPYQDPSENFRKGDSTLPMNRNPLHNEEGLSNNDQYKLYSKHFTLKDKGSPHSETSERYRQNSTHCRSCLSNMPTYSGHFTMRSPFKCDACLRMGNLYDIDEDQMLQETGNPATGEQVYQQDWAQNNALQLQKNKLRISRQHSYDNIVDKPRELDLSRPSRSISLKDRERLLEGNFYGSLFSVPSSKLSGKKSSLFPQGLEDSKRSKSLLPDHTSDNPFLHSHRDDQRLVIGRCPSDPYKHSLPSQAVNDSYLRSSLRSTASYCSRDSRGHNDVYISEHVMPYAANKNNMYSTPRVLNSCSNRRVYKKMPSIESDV

c1ccc2cc3ccccc3cc2c1 [Anthracene]
IC50 for NR1/NR2A [1]: no effect | NMDA receptor (NR1A/NR2A) function at the highest dose [1]: greater than 85%

Cl.Cl.Cl.NCCCCN(CCCCN)Cc1c2ccccc2cc2ccccc12 [Compound 8e, N-(4-Amino-butyl)-N-anthracen-9-ylmethyl-butane-1,4-diamine, trihydrochloride]
IC50 [2, 8]: 0.15 µM | IC50 [3, 9]: 66.7 µM | IC50 [4, 10]: 0.3 µM | Ki [5]: 1.8 µM | IC50 ([6]; active polyamine transporter): 0.45 µM | CHO-MG/CHO IC50 ratio ([6]; trihydrochloride): 148 | formation of homospermidine in treated cells (de-alkylation) [7]: did not form homospermidine

Cl.Cl.Cl.Cl.NCCCCCN(CCCCNCCCN)Cc1c2ccccc2cc2ccccc12 [Compound 13g, N-[4-(3-Amino-propylamino)-butyl]-N-anthracen-9-ylmethyl-pentane-1,5-diamine Tetrahydrochloride]
IC50 [2, 8]: 2.1 µM | L1210/(L1210 + DFMO) IC50 ratio [2]: 3 | IC50 [3, 9]: 33.5 µM | IC50 [4, 10]: 6.4 µM | Ki [5]: 0.099 µM | IC50 ([6]; active polyamine transporter): 18 µM | CHO-MG/CHO IC50 ratio [6]: 1.9

Cl.Cl.Cl.Cl.NCCCCCN(CCCCNCCCCN)Cc1c2ccccc2cc2ccccc12 [Compound 13h, N-[4-(4-Amino-butylamino)-butyl]-N-anthracen-9-ylmethyl-pentane-1,5-diamine Tetrahydrochloride]
IC50 [2, 8]: 3.8 µM | L1210/(L1210 + DFMO) IC50 ratio [2]: 1.9 | IC50 [3, 9]: 30.8 µM | IC50 [4, 10]: 7.2 µM | Ki [5]: 0.065 µM | IC50 ([6]; active polyamine transporter): 9.9 µM

Cl.Cl.Cl.Cl.NCCCCCN(CCCCCNCCCCN)Cc1c2ccccc2cc2ccccc12 [Compound 13i, N-[5-(4-Amino-butylamino)-pentyl]-N-anthracen-9-ylmethyl-pentane-1,5-diamine Tetrahydrochloride]
IC50 [2, 8]: 4.3 µM | L1210/(L1210 + DFMO) IC50 ratio [2]: 1.7 | IC50 [3, 9]: 5.7 µM | IC50 [4, 10]: 7.1 µM | Ki [5]: 0.064 µM | IC50 ([6]; active polyamine transporter): 4 µM | CHO-MG/CHO IC50 ratio [6]: 1.4

Cl.Cl.Cl.NCCCCNCCCCNCc1ccccc1 [Compound 27a, N-(4-Amino-butyl)-N′-benzene-1-ylmethyl-butane-1,4-diamine Trihydrochloride]
IC50 [2, 8]: 421 µM | L1210/(L1210 + DFMO) IC50 ratio [2]: 0.1 | IC50 [3, 9]: > 1000 µM | IC50 [4, 10]: 36.3 µM | Ki [5]: 4.5 µM | IC50 ([6]; active polyamine transporter): > 1000 µM

Cl.Cl.Cl.NCCCCNCCCCNCc1cccc2ccccc12 [Compound 27b, N-(4-Amino-butyl)-N′-naphthalen-1-ylmethyl-butane-1,4-diamine Trihydrochloride]
IC50 [2, 8]: 0.43 µM | L1210/(L1210 + DFMO) IC50 ratio [2]: 1.1 | IC50 [3, 9]: > 100 µM | IC50 [4, 10]: 0.5 µM | Ki [5]: 3.8 µM | IC50 ([6]; active polyamine transporter): 0.6 µM | CHO-MG/CHO IC50 ratio ([6]; listed as 27c, Trihydrochloride): >164 | CHO-MG/CHO IC50 ratio ([6]; trihydrochloride): > 164

Cl.Cl.Cl.NCCCCNCCCCNCc1ccc2ccc3cccc4ccc1c2c34 [Compound 27d, N-(4-Amino-butyl)-N′-pyren-1-ylmethyl-butane-1,4-diamine Trihydrochloride]
IC50 ([2]; L1210, read-out: L1210 + DFMO IC50): 0.36 µM | L1210/(L1210 + DFMO) IC50 ratio [2]: 1.1 | IC50 [3]: 15.5 µM | IC50 ([4]; L1210, read-out: L1210 IC50): 0.4 µM | Ki [5]: 2.9 µM | IC50 [6]: 0.46 µM | CHO-MG/CHO IC50 ratio [6]: 34

Cl.Cl.Cl.NCC(O)CNCCCCNCc1c2ccccc2cc2ccccc12 (stereo not drawn) [Compound 30, 1-Amino-3-{4-[(anthracen-9-ylmethyl)-amino]-butylamino}-propan-2-ol Trihydrochloride]
IC50 [2, 8]: 2.3 µM | L1210/(L1210 + DFMO) IC50 ratio [2]: 0.7 | IC50 [3, 9]: 9.5 µM | IC50 [4, 10]: 1.5 µM | Ki [5]: 12.5 µM | IC50 ([6]; active polyamine transporter): 9.1 µM | CHO-MG/CHO IC50 ratio [6]: 1

Cl.Cl.Cl.NC1CCC(NCCCCNCc2c3ccccc3cc3ccccc23)CC1 (stereo not drawn) [Compound 31, N-{4-[(Anthracen-9-ylmethyl)-amino]-butyl}-cyclohexane-1,4-diamine Trihydrochloride]
IC50 [2, 8]: 0.7 µM | L1210/(L1210 + DFMO) IC50 ratio [2]: 1.4 | IC50 [3, 9]: 17.4 µM | IC50 [4, 10]: 1 µM | Ki [5]: 3.8 µM | IC50 ([6]; active polyamine transporter): 2.5 µM | CHO-MG/CHO IC50 ratio [6]: 7

Cl.Cl.NCCCCCCCCNCc1c2ccccc2cc2ccccc12 [Compound 32, N^1-Anthracen-9-ylmethyl-octane-1,8-diamine Dihydrochloride]
IC50 [2, 8]: 4.6 µM | L1210/(L1210 + DFMO) IC50 ratio [2]: 0.7 | IC50 [3, 9]: 4.9 µM | IC50 [4, 10]: 3 µM | Ki [5]: 13.3 µM | IC50 ([6]; active polyamine transporter): 4.9 µM | CHO-MG/CHO IC50 ratio [6]: 1

Cl.Cl.NCCOCCOCCNCc1c2ccccc2cc2ccccc12 [Compound 33, 2-(2-{2-[(Anthracen-9-ylmethyl)-amino]-ethoxy}-ethoxy)-ethylamine Dihydrochloride]
IC50 [2, 8]: 17 µM | L1210/(L1210 + DFMO) IC50 ratio [2]: 0.7 | IC50 [3, 9]: 15.9 µM | IC50 [4, 10]: 11.3 µM | Ki [5]: 90 µM | IC50 ([6]; active polyamine transporter): 12.6 µM | CHO-MG/CHO IC50 ratio [6]: 1.3

Cl.Cl.NCCCCNCc1c2ccccc2cc2ccccc12 [Compound 34, N^1-Anthracen-9-ylmethyl-butane-1,4-diamine Dihydrochloride]
IC50 [2, 8]: 9.78 µM | L1210/(L1210 + DFMO) IC50 ratio [2]: 0.7 | IC50 [3, 9]: 7.6 µM | IC50 [4, 10]: 6.3 µM | Ki [5]: 32.2 µM | IC50 ([6]; active polyamine transporter): 7.7 µM | CHO-MG/CHO IC50 ratio [6]: 1

CCCCNCc1c2ccccc2cc2ccccc12 [Compound 35, N^1-Anthracen-9-ylmethyl-butylamine Monohydrochloride]
IC50 [2, 8]: 21.9 µM | L1210/(L1210 + DFMO) IC50 ratio [2]: 0.7 | IC50 [3, 9]: 11.2 µM | IC50 [4, 10]: 14.6 µM | Ki [5]: 62.3 µM | IC50 ([6]; active polyamine transporter): 10.5 µM | CHO-MG/CHO IC50 ratio [6]: 1.1

NCCCNCCCCNCCCN [Spermine]
IC50 [1]: 519 µM
